Source: paper PMC12376908, “Synthesis and radiolabelled evaluation of novel pyrimidine derivatives as dual α-amylase inhibitors and GIT-targeted molecular imaging probe” (RSC Advances, 2025)
Values after ≈ are worked out from the molar mass of the structure shown.

Target: T1, α-amylase
T1 construct: gene AMY2; porcine pancreas is only a guess from usual DNSA assay practice
Assay: DNSA alpha-amylase inhibition assay, nonlinear regression
Format: biochemical
Settings: enzyme source, substrate, pH and temperature not stated; triplicate

IC50: 34.60 ± 1.43 µg/mL (≈ 91.4 µM)
SMILES: CC(=O)C1=C(O)C=C2NC(=O)NC3=CC(O)=C(C(C)=O)C1(c1ccccc1)C23 (stereo not shown) [compound 1, 1,1′-(5,8-Dihydroxy-2-oxo-6a-phenyl-2,3,3a1,6a-tetrahydro-1H-perimidine-6,7-diyl)bis(ethan-1-one)]
